Activity, Emax and EC50 data for eight compounds are collected here from ChEMBL document CHEMBL4138119, “Anti-diabetic activity of fused PPARγ-SIRT1 ligands with limited body-weight gain by mimicking calorie restriction and decreasing SGK1 expression” (Eur J Med Chem, 2017).

SMILES strings stand for the structures. Calls of active or inactive are those of the source. The rule behind the calls is not given here.

The nature of series [1]: Modulation of SGK1 mRNA expression in HCCD cells at 20 uM after 24 hrs by RT-PCR method relative to control. It counts as functional, Homo sapiens.
In series [2] the target is T1, Peroxisome proliferator-activated receptor alpha (Homo sapiens) (UniProt Q07869).
T1 sequence (whole entry): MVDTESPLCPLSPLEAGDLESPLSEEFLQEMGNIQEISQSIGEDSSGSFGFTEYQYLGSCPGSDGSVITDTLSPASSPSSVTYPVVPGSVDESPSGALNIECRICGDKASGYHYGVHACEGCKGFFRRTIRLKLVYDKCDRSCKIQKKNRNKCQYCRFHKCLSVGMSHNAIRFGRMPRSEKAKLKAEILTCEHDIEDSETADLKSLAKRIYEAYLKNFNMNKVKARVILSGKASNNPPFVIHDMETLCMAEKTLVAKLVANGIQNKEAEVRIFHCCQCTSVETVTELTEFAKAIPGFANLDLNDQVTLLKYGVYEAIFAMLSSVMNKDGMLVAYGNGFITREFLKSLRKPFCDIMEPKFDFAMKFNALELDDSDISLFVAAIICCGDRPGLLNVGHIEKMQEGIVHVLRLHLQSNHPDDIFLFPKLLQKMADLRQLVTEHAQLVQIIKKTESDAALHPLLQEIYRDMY
Briefly: Transactivation of human Gal4-fused PPARalpha LBD expressed in African green monkey COS7 cells after 24 hrs by luciferase reporter gene assay relative to WY14643. It counts as cell-based. For orientation: Reporter assays use an easily measured gene product as a stand-in for the process of interest.

In series [3] the test system is Mus musculus. Briefly: Toxicity in ob/ob mouse assessed as change in body weight at 3 mg/kg administered via oral gavage daily for 4 days measured on day 5 relative to control. To be noted: in vivo, 96 h. Type of series: organism-based.
For series [4], the system named is Mus musculus. Put plainly: Toxicity in ob/ob mouse assessed as change in body weight at 8.4 uM/kg administered via oral gavage daily for 4 days measured on day 5 relative to control. Type of series: organism-based. The following applies: in vivo, 96 h, 8.4 µmol/kg.
Series [5] deals with T2, NAD-dependent protein deacetylase sirtuin-1 (Homo sapiens) (UniProt Q96EB6).
T2 sequence (whole entry): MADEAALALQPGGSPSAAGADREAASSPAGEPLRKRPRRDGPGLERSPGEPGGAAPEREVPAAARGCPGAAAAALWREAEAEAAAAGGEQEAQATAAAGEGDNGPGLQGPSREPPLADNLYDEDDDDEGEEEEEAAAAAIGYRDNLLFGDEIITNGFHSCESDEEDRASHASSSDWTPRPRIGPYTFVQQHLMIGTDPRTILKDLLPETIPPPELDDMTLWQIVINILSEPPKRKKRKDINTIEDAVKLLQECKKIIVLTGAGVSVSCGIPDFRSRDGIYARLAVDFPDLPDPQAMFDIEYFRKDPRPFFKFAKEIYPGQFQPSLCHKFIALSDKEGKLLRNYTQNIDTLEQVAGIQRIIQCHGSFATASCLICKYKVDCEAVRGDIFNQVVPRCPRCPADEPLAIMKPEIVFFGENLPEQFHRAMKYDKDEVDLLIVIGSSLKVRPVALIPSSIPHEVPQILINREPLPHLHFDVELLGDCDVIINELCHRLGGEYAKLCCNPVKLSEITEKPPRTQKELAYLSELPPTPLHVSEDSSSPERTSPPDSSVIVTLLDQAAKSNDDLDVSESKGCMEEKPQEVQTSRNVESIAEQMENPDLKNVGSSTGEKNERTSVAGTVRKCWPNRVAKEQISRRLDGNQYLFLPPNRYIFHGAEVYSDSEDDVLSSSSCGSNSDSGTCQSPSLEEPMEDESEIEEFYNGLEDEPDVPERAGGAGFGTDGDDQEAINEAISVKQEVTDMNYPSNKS
Briefly: Activation of recombinant human SIRT1 at 10 uM using C-terminal AMC labeled Arg-His-Lys-Lys (Ac) as substrate after 30 mins by FLUOR DE LYS fluorescent assay relative to control.

In series [6] the target is T3, Peroxisome proliferator-activated receptor gamma (Homo sapiens, UniProt P37231).
T3 sequence (P37231 whole entry): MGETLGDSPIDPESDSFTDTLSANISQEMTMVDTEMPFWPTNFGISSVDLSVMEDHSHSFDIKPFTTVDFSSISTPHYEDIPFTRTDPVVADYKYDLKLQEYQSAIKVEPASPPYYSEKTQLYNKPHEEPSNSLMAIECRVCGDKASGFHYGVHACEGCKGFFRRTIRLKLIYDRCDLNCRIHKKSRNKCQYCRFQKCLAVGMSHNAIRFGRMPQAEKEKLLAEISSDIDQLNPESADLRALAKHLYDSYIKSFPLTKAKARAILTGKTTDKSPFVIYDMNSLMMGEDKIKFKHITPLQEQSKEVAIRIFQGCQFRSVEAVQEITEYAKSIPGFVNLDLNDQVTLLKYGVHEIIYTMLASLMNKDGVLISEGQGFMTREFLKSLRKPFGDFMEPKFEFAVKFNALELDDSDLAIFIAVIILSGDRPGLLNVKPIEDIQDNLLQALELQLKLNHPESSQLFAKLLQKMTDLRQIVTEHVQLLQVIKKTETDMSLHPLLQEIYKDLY
Put plainly: Transactivation of human Gal4-fused PPARgamma LBD expressed in African green monkey COS7 cells after 24 hrs by luciferase reporter gene assay. Type of series: cell-based. The following applies: read-out: EC50.

Series [7] concerns the target T4, Peroxisome proliferator-activated receptor delta (Homo sapiens) (UniProt Q03181).
T4 sequence (whole entry): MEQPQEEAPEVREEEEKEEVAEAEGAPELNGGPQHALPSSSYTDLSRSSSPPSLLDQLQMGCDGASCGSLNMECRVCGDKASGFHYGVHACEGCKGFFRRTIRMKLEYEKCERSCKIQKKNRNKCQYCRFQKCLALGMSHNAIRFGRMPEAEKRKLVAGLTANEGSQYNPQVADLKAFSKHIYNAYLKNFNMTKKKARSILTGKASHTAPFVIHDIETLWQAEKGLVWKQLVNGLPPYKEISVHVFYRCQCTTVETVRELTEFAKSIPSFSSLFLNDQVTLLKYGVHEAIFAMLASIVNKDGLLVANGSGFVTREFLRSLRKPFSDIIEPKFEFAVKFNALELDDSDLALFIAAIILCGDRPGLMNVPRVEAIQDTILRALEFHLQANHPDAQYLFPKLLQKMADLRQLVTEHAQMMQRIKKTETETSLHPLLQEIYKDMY
Briefly: Transactivation of human PPARdelta at 10 uM.

The test system of series [8] is Mus musculus. Put plainly: Anti-diabetic activity in ob/ob mouse assessed as change in serum insulin levels at 8.4 uM/kg administered via oral gavage daily for 4 days measured on day 5 relative to control. Type of series: functional.
Series [9] relates to Mus musculus. Put plainly: Anti-diabetic activity in ob/ob mouse assessed as change in serum triglyceride levels at 8.4 uM/kg administered via oral gavage daily for 4 days measured on day 5 relative to control. It counts as functional.
The target of series [10] is T5, Peroxisome proliferator-activated receptor alpha (Homo sapiens, UniProt Q07869).
T5 sequence (Q07869 whole entry): T1 sequence (whole entry)
Put plainly: Transactivation of human Gal4-fused PPARalpha LBD expressed in African green monkey COS7 cells after 24 hrs by luciferase reporter gene assay. It counts as cell-based.

Series [11] has as its system Mus musculus. Briefly: Anti-diabetic activity in ob/ob mouse assessed as change in serum glucose levels at 8.4 uM/kg administered via oral gavage daily for 4 days measured on day 5 relative to control. Type of series: functional.

As to `COc1ccc(OC(=O)N(CC(=O)O)Cc2ccc(OCCc3nc(-c4ccccc4)oc3C)cc2)cc1` [MURAGLITAZAR], the Activity in series [1] came to 178%; in the series on Mus musculus [3], 206%. The Emax in series [2] was 84%.
As usually defined, the EC50 is the concentration giving half of the maximal effect. For `CCOC(Cc1ccc(OCCn2c(=O)sc3cc(/C=C/c4cc(OC)cc(OC)c4)ccc32)cc1)C(=O)NC` (centres undefined), the Activity in the series with Mus musculus [4] is 111%; in [5], 17%; in series [1] it was -43%; in the series with Mus musculus [8], -36%; in the series with Mus musculus [9], -29%; in the series on Mus musculus [11] it was -14%. Besides, the results for the EC50 in series [6] and in [10] were less than 0.01 µM and 10 µM, respectively. Moreover, the result in series [7] was inactive. This compound showed an Emax in series [2] of 0%.
As for `CCOC(=O)C(Cc1ccc(OCCn2c(=O)sc3cc(C(=O)/C=C/c4cc(OC)cc(OC)c4)ccc32)cc1)OCC(F)(F)F` (centres undefined), the Activity in the series with Mus musculus [4] is 93%; in series [5] it was 0%; in series [1], -53%; in the series on Mus musculus [8], 17%; in the series on Mus musculus [9], -24%; with Mus musculus [11], 2%. The EC50 in [6] is 0.2 µM; in [10], 10 µM. For the same compound, in series [7], the outcome was inactive. Further, the Emax in series [2] was 21%.
In the case of `CCOC(=O)C(Cc1ccc(OCCn2c(=O)sc3cc(C(=O)/C=C/c4cc(O)cc(O)c4)ccc32)cc1)OCC(F)(F)F` (centres undefined), the Activity in the series with Mus musculus [4] was 75%; in [5] it was 24%; in [1] it was 180%; in the series on Mus musculus [8], 11%; in the series with Mus musculus [9], -8%; with Mus musculus [11], -5%. Besides, the figures for the EC50 in series [6] and in series [10] were 0.03 µM and 10 µM, respectively. For the same compound, the outcome in series [7] was inactive. The same compound displayed an Emax in series [2] of 12%.
On to `Cc1oc(-c2ccccc2)nc1CCOc1ccc(C[C@H](Nc2ccccc2C(=O)c2ccccc2)C(=O)O)cc1` [FARGLITAZAR], for which the Activity came to 969% in series [1] and 162% in the series with Mus musculus [3]. In series [2], the Emax turned out to be 231%.
Turning to `CCOC(Cc1ccc(OCCn2c(=O)sc3cc(C(=O)/C=C/c4cc(OC)cc(OC)c4)ccc32)cc1)C(=O)O` (centres undefined), the Activity with Mus musculus [4] was 150%; in [5], 23%; in [1] it was 736%; in the series with Mus musculus [8], 18%; with Mus musculus [9], -31%; with Mus musculus [11], -27%. In addition, the EC50 in series [6] is 1 µM; in [10], 10 µM. Moreover, the outcome in series [7] was inactive. The Emax in series [2] came out at 53%.
On to `CN(CCOc1ccc(CC2SC(=O)NC2=O)cc1)c1ccccn1` (centres undefined) [ROSIGLITAZONE], for which the figures for the Activity (in series [5]; in series [1]; with Mus musculus [3]) were 5%, 119% and 100%, respectively.
Turning to `CCOC(=O)C(Cc1ccc(OCCn2c(=O)sc3cc(C(=O)/C=C/c4cc(OC)cc(OC)c4)ccc32)cc1)OCC` (centres undefined), the Activity was 112% with Mus musculus [4]; 2% in series [5]; -14% in [1]; -7% in the series with Mus musculus [8]; -34% in the series on Mus musculus [9]; -25% in the series with Mus musculus [11]. The EC50 stood at 0.03 µM in series [6] and 10 µM in [10]. Besides, in series [7], the result was inactive. This compound also yielded an Emax in series [2] of 0%.
